Measured values: US20050054103A1, “Expansion of renewable stem cell populations using modulators of PI 3-kinase” (priority 2003, published 2005)

Experiments:
CD34+ cell cultures = assay: Colony forming unit (CFU, LTC-CFUc) ability of RAR antagonist treated CD34+ cultures; type: cell-based, human; settings: for No. of CFU*103: RAR antagonist 10^−5 M for one week only
Experimental: Cells were cloned in semi-solid, methylcellulose-containing medium supplemented with 2 IU/ml erythropoietin (Eprex, Cilag AG Int., Switzerland), stem cell factor and IL-3, both at 20 ng/ml, and G-CSF and GM-CSF, both at 10 ng/ml (all from Perpo Tech). Cultures were incubated for 14 days at 37° C., 5% CO2 in a humidified atmosphere.
Briefly, the ability of the cultures to maintain self-renewal was measured by determination of the content of colony forming unit cells in the long and extended long-term cultures (LTC-CFUc), as described in the references hereinabove.
Long-term CD34^+ cell cultures were supplemented with a combination of 4 cytokines, Flt3, TPO, IL-6 and IL-3, with and without varying predetermined concentrations of the RAR antagonist AGN 194310. RAR antagonist treatment of the cultures was for a limited period of three weeks or was continuous during the entire culture period. The ability to form CFUs was determined for long-term (6 weeks) cultures treated with 2 doses of the RAR antagonist for a short pulse or continuously and was compared to control samples treated with cytokines alone.

Hepatocytes = assay: Hepatocyte cultures ex-vivo expanded with TEPA; type: cell-based, BALB/c mice; settings: 15 μg/ml TEPA, five weeks
Experimental: Hepatocytes: Livers were dissected from anesthetized BALB/c mice with sterile tools and immersed into F12 culture medium (Biological Industries, Kibbutz Bet Ha'Emek, Israel). The livers were washed three times with 3% BSA/PBS buffer and minced into small pieces with seizures. Following three washes with 3% BSA/PBS the liver tissue pieces were incubated for 30 minutes with 0.05% collagenase at 37° C. with continuos shaking under 5% CO2 atmosphere. The digested liver tissue pieces were than mashed by pressing through a fine mesh strainer. After three washes with 3% BSA/PBS the liver cells were seeded into F12 culture medium enriched with: 15 mM HEPES buffer, […], 10 mM sodium bicarbonate, 0.5 u/ml insulin, 7.5 ng/ml hydrocortisone and with or without 15 μg/ml of TEPA and incubated at 37° C. in a 5% CO2 atmosphere. After overnight incubation the medium was removed and the cells were supplemented with fresh enriched F12 medium as described above with or without 15 μg/ml of TEPA. Hepatocytes were incubated in 35 mm dishes for several weeks with enriched F12 culture medium with or without 15 μg/ml TEPA at 37° C. under 5% CO2 atmosphere. Cell culture medium was replaced every week with a fresh medium.

NOD/SCID mice = assay: Engraftment of SCID mice by ex-vivo expanded human hematopoietic cells; type: in vivo; settings: for Engraftment CD19 (%) / Engraftment CD34 (%) / Engraftment CD45 (%) / Engraftment Colonies (per 2 × 10^5 SCID BM cells): TEPA + Cytokines
Experimental: Engraftment of SCID mice by ex-vivo expanded human hematopoietic cells: […] After 4 weeks, the mice were sacrificed and their femora and tibias were excised and the bone marrow flushed with a syringe fitted with a 25 gauge needle. A single cell suspension was prepared, the cells were washed and an aliquot counted with Trypan blue. In order to quantitate engrafted cells of human origin, cells were stained with FITC-conjugated anti CD45 antibodies and PE-conjugated either anti CD34, CD19 or CD33 antibodies. Anti CD45 antibodies recognize human, but not mouse, cells, and thus, indicates the human origin of the cells. The proliferation and differentiation potential of the engrafted cells was assayed by cloning bone marrow cells in semi-solid medium under conditions that allow specifically growth of human derived colonies essentially as described in (56).

[1] = test system: Normal human erythroid cells; assay: Human erythroid two-phase liquid culture; type: cell-based; settings: TEPA 10 μM in second phase, after 14 days
Experimental: Peripheral blood mononuclear cells, obtained from an adult normal donor, were cultured in the erythroid two-phase liquid culture system (23-25). The second phase of the culture was supplemented either without or with 10 μM of TEPA. Cultures were analyze for total cells and hemoglobin-containing [benzidine positive (B^+)] cells after 14 days.
Human erythroid cell cultures: Normal human erythroid cells were grown according to the two-phase liquid culture procedure, essentially as described in references 67-70. In the first phase, peripheral blood mononuclear cells were incubated in the presence of early growth factors for 5-7 days. In the second phase, these factors were replaced by the erythroid specific proliferation/differentiation factor, erythropoietin.
The cultures were supplemented with TEPA at the initiation of the second phase. The total cell number and the percentage of hemoglobin-containing cells were determined after 14 days.

[2] = test system: Boston fern Callus tissue cultures; assay: Intracellular copper content of plant callus tissues incubated with TEPA; type: cell-based; settings: two days
Experimental: Plant cells: The effect of TEPA on the intracellular copper content of plant cells was determined as follows. Boston fern Callus tissue cultures were obtained from a commercial plant tissue culture production facility (Biological Industries, Kibbutz Bet Ha'Emek, Israel) and incubated with different concentrations of TEPA in the culture medium for two days at room temperature. After three washes with PBS the tissues were suspended in 0.03 M ultra pure nitric acid and homogenized with a high shear mixer (polytron, Kinematica, Switzerland) for 3 minutes to disrupt the cells and release intracellular copper. Cell samples were vortexed before transferring to a vial autosampler and analyzed in duplicate by a Perkin Elmer graphite furnace atomic absorption spectrophotometer at a wavelength of 324.7 nm. The samples were analyzed against copper standard solution prepared from a commercial stock solution that was diluted with 0.03 M ultra pure nitric acid.

[3] = CB 2 (first listed) 10% FCS, 2 weeks ex-vivo
[4] = CB 2 (second listed) 10% FCS, 2 weeks ex-vivo

Compound: CCc1ccc(C2=CC(C)(C)Sc3ccc(C#Cc4ccc(C(=O)O)cc4)cc32)cc1 [AGN 194310]
- No. of CFU*103 (CD34+ cell cultures; week 13): 66355 *103
- No. of CFU*103 (CD34+ cell cultures; week 20): 0 *103
- increase of CFU content (CD34+ cell cultures; extended long-term cultures (week 6 to 10), pulse or continuous treatment): 15×10^4
- increase in CFU content as compared to control (CD34+ cell cultures; long-term (6 weeks) cultures, pulsed first 3 weeks or continuous antagonist): 5 fold

Compound: NCCNCCNCCNCCN [TEPA, tetraethylenepentamine]
- cell content of hepatocyte cultures (Hepatocytes): contained many dividing and undifferentiated cells
- Engraftment CD19 (%) (NOD/SCID mice; [3]): 11%
- Engraftment CD34 (%) (NOD/SCID mice; [3]): 13%
- Engraftment CD45 (%) (NOD/SCID mice; [3]): 56%
- Engraftment Colonies (per 2 × 10^5 SCID BM cells) (NOD/SCID mice; [3]): 330
- Engraftment CD19 (%) (NOD/SCID mice; [4]): 9%
- Engraftment CD34 (%) (NOD/SCID mice; [4]): 13.5%
- Engraftment CD45 (%) (NOD/SCID mice; [4]): 48%
- Engraftment Colonies (per 2 × 10^5 SCID BM cells) (NOD/SCID mice; [4]): 528
- Engraftment CD19 (%) (NOD/SCID mice; CB 3 10% FCS, 2 weeks ex-vivo): 5%
- Engraftment CD34 (%) (NOD/SCID mice; CB 3 10% FCS, 2 weeks ex-vivo): 4%
- Engraftment CD45 (%) (NOD/SCID mice; CB 3 10% FCS, 2 weeks ex-vivo): 20%
- Engraftment Colonies (per 2 × 10^5 SCID BM cells) (NOD/SCID mice; CB 3 10% FCS, 2 weeks ex-vivo): 100
- Engraftment CD19 (%) (NOD/SCID mice; CB 4 1% FCS, 2 weeks ex-vivo): 8%
- Engraftment CD34 (%) (NOD/SCID mice; CB 4 1% FCS, 2 weeks ex-vivo): 7%
- Engraftment CD45 (%) (NOD/SCID mice; CB 4 1% FCS, 2 weeks ex-vivo): 28%
- Engraftment Colonies (per 2 × 10^5 SCID BM cells) (NOD/SCID mice; CB 4 1% FCS, 2 weeks ex-vivo): 185
- Engraftment CD19 (%) (NOD/SCID mice; CB 4 1% FCS, 4 weeks ex-vivo): 14%
- Engraftment CD34 (%) (NOD/SCID mice; CB 4 1% FCS, 4 weeks ex-vivo): 9%
- Engraftment CD45 (%) (NOD/SCID mice; CB 4 1% FCS, 4 weeks ex-vivo): 40%
- Engraftment Colonies (per 2 × 10^5 SCID BM cells) (NOD/SCID mice; CB 4 1% FCS, 4 weeks ex-vivo): 267
- Engraftment CD19 (%) (NOD/SCID mice; CB 5- FCS, 4 weeks ex-vivo): 9%
- Engraftment CD34 (%) (NOD/SCID mice; CB 5- FCS, 4 weeks ex-vivo): 6%
- Engraftment CD45 (%) (NOD/SCID mice; CB 5- FCS, 4 weeks ex-vivo): 21%
- Engraftment Colonies (per 2 × 10^5 SCID BM cells) (NOD/SCID mice; CB 5- FCS, 4 weeks ex-vivo): 275
- Engraftment CD19 (%) (NOD/SCID mice; CB 6 1% FCS, 2 weeks ex-vivo): 19%
- Engraftment CD34 (%) (NOD/SCID mice; CB 6 1% FCS, 2 weeks ex-vivo): 16%
- Engraftment CD45 (%) (NOD/SCID mice; CB 6 1% FCS, 2 weeks ex-vivo): 73%
- Engraftment Colonies (per 2 × 10^5 SCID BM cells) (NOD/SCID mice; CB 6 1% FCS, 2 weeks ex-vivo): 350
- Engraftment CD19 (%) (NOD/SCID mice; CB 6 10% FCS, 2 weeks ex-vivo): 26%
- Engraftment CD34 (%) (NOD/SCID mice; CB 6 10% FCS, 2 weeks ex-vivo): 9%
- Engraftment CD45 (%) (NOD/SCID mice; CB 6 10% FCS, 2 weeks ex-vivo): 73%
- Engraftment Colonies (per 2 × 10^5 SCID BM cells) (NOD/SCID mice; CB 6 10% FCS, 2 weeks ex-vivo): 420
- cord blood samples (of 6) expanded ex-vivo that succeeded to engraft the animals (NOD/SCID mice; expanded in the presence of TEPA): 6
- hemoglobin-containing cells [1]: sharp decrease
- total number of cells [1]: decreased only slightly
- Average Intracellular Copper Content (ppb) ([2]; TEPA 10 μM in medium): 13.85 +/− 4.09 ppb
- Average Intracellular Copper Content (ppb) ([2]; TEPA 50 μM in medium): 8.45 +/− 0.05 ppb
- Average Intracellular Copper Content (ppb) ([2]; TEPA 100 μM in medium): 7.1 +/− 2.12 ppb
